{
  "source": "patent US11013706B2",
  "about": "“Non-pharmaceutical bactericidal composition against Helicobacter pylori” (ECO-GEO BIO-TECHNOLOGY COMPANY LIMITED., priority 2019, dated 2021)",
  "key": {"[1]": {"tested_on": "Helicobacter pylori strain 26695 (ATCC700392)", "test": "Embodiment 4: antibacterial experiment against Helicobacter pylori, malate, lactate, citrate and phosphate buffer combinations with ascorbic acid (viable count)", "type": "cell-based", "procedure": "The bacteria strain used in the experiment was Helicobacter pylori strain 26695 (ATCC700392), and the bacteria were subcultured on Brucella solid medium (Brucella broth 28 g/L, Agar 15 g/L and 10% (v/v) Horse serum, pH 7.0). After the bacteria were seeded by streaking method, they were cultured in a humidified anaerobic chamber at 37° C. for 72 hours using a microaerobic bag (Genbox microaer, BioMerieux, 96125). […] Brucella broth containing 10 mg/mL of NaHCO3 was added to the Helicobacter pylori subcultured for 72 hours, bacterial concentration was adjusted to 10^7-10^8 CFU/mL as a bacterial solution, the bacterial solution was mixed with each culture solution in a 1:1 ratio, and the mixture was incubated at 37° C. in a humidified anaerobic chamber using a micro-aerobic bag (Genbox microaer, BioMerieux, 96125). […] The malate buffer combination and the lactate buffer combination were prepared by mixing malic acid and sodium malate, and lactic acid and sodium lactate, respectively, in the same way. The phosphate buffer solutions were prepared by mixing KH2PO4 and Na2HPO4 in different ratios according to their pH values, and the unmodulable portion was prepared by HCl and NaOH to reach a constant pH value. The pH of the pure medium was adjusted with HCl and NaOH. […] Finally, the viable count of each culture medium was calculated."}, "[2]": {"tested_on": "Helicobacter pylori strain 26695 (ATCC700392)", "test": "Embodiment 1: antibacterial experiment against Helicobacter pylori, citrate and phosphate buffer combinations with or without ascorbic acid (viable count)", "type": "cell-based"}},
  "data": [
    {"smiles": "O=C1O[C@H]([C@@H](O)CO)C(O)=C1O", "note": "[ascorbic acid, L-Ascorbic acid]", "values": [
      {"measurement": "effect of the ascorbic acid on the sterilization effect of the citrate or the malate buffer combination", "setting": "[1]; comparing Embodiment 3 and Embodiment 4", "value": "synergistic effect"},
      {"measurement": "effect of the ascorbic acid added to the phosphate buffer combination or water", "setting": "[1]; presence of bicarbonate, Embodiments 3 and 4", "value": "neither bactericidal effect nor synergistic effect"},
      {"measurement": "effect of the ascorbic acid on the sterilization of the citrate buffer combination", "setting": "[2]; comparing C3 with C3V3000, and C4 with C4V3000", "value": "synergistic effect"},
      {"measurement": "effect of the ascorbic acid added to the phosphate buffer combination or water", "setting": "[2]; presence of bicarbonate, Embodiment 1", "value": "neither the bactericidal effect nor the synergistic effect"}
    ]}
  ]
}
